Experimental findings from publication doi:10.1101/2025.07.24.666388, “Small Molecule Activators of Protein Phosphatase 2A Exert Global Stabilising Effects on the Scaffold PR65” (bioRxiv, 2025) are described below.

Structures are written as SMILES.

The test has as its target T1, PR65 (PP2A scaffold subunit A) (Homo sapiens, UniProt P30153).
T1 construct: gene PPP2R1A; WT PR65, 15 HEAT repeats (GST tag cleaved); ybbR-tagged PR65 for optical tweezers
Briefly: fluorescence polarisation (PR65 titrated into fluorescent ATUX-8385); also nanoDSF shift and optical tweezers. The format is binding.

T1 sequence (P30153 2-589): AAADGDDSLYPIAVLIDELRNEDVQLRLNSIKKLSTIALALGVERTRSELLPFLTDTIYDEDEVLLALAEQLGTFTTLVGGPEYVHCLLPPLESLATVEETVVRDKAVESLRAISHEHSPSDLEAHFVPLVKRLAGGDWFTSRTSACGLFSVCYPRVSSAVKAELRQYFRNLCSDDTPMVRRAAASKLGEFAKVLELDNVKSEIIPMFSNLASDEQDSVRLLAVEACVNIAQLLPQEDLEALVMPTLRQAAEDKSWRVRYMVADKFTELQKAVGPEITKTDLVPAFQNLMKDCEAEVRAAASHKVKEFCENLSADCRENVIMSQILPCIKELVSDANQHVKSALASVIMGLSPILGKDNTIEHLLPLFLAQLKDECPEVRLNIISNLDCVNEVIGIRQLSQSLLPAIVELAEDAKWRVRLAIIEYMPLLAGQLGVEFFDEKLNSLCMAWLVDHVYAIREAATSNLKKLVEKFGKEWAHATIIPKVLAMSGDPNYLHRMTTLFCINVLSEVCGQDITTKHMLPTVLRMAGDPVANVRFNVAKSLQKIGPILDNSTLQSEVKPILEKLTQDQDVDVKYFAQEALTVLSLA

On to `O=S(=O)(NC1CNCC(n2c3ccc(F)cc3c3cc(F)ccc32)C1O)c1ccc(OC(F)(F)F)cc1` (stereo not shown) [ATUX-8385], for which the Kd came to 4.7 ± 1.1 µM.

One may read the Kd as the equilibrium constant for the complex coming apart.
